Tested on: SARS-CoV-2 Delta
Assay type: cell-based
Conditions: 346 µM compounds, 480 µg/ml antibodies

Substance | viral replication of SARS-CoV-2, basal treatment
Imdevimab: monoclonal Ab administered intravenously in patients, used as positive control (Roche) | show an antiviral effect
Casirivimab: monoclonal Ab administered intravenously in patients, used as positive control (Roche) | show an antiviral effect
